Source: ChEMBL document CHEMBL5715945 (Cancer Biol Ther, 2010)
Calls of active or inactive are those of the source. The rule behind the calls is not given here.

How the values were obtained:
[1] = target: Focal adhesion kinase 1 (Mus musculus) (UniProt P34152); assay: Inhibition of FAK phosphorylation at Tyr397 residue in mouse ID8 cells harbouring mCherry red fluorescent protein at 0.1 to 1 uM incubated for 1 hr by immunoblotting analysis; type: cell-based; conditions: dose 0.1-1 µM
[2] = test system: MDA-MB-231; assay: Upregulation of FAK level in human MDA-MB-231 cells harbouring mCherry red fluorescent protein at 0.1 to 1 uM incubated for 1 hr by immunoblotting analysis; type: functional, cell-based; conditions: dose 0.1-1 µM
[3] = test system: 4T1; assay: Effect on Src phosphorylation at Tyr416 residue in mouse 4T1 cells harbouring mCherry red fluorescent protein at 0.1 to 1 uM incubated for 1 hr by immunoblotting analysis; type: functional, cell-based; conditions: dose 0.1-1 µM
[4] = test system: 4T1; assay: Inhibition of cell migration in mouse 4T1 cells incubated for 4 hrs by millicell-motility assay; type: functional, cell-based; conditions: dose 0.1-1 µM
[5] = test system: 4T1; assay: Induction of apoptosis in mouse 4T1 adherent cells at 1 uM incubated for 72 hrs by PI staining based flow cytometry analysis; type: functional, cell-based
[6] = test system: 4T1; assay: Induction of apoptosis in mouse 4T1 suspended cells at 0.1 uM incubated for 72 hrs by PI staining based flow cytometry analysis; type: functional, cell-based
[7] = test system: 4T1; assay: Induction of cell cycle arrest in mouse 4T1 adherent cells assessed as accumulation at G2/M phase at 1 uM measured after 72 hrs by PI staining based flow cytometry analysis (reference value: 5.6%); type: functional
[8] = test system: 4T1; assay: Induction of cell cycle arrest in mouse 4T1 cells assessed as accumulation at sub-diploid cells at 1 uM measured after 72 hrs by PI staining based flow cytometry analysis; type: functional
[9] = test system: 4T1; assay: Induction of apoptosis in mouse 4T1 suspended cells at 0.1 to 0.4 uM incubated for 24 hrs by annexin V staining based flow cytometry analysis; type: functional; conditions: dose 0.1-0.4 µM
[10] = test system: 4T1; assay: Effect on p130Cas phosphorylation at Tyr249 residue in mouse 4T1 cultured as 3D spheroids at 0.1 uM incubated for 24 hrs by immunoblotting analysis; type: functional, cell-based
[11] = test system: 4T1; assay: Inhibition of colony formation in mouse 4T1 cells assessed as reduction in cell number measured after 10 days by phase contrast microscopy analysis; type: functional, cell-based; conditions: dose 0.4-1 µM, time 10.0 day
[12] = Toxicity in C57BL6 mouse implanted with mouse ID8 cells assessed as adverse effects at 0.5 mg/ml administered as solution in 5% sucrose measured after 30 days; type: cell-based; conditions: id8, 720 h, time 30 day
[13] = target: Tyrosine-protein kinase ABL1 (Homo sapiens) (UniProt P00519); assay: Inhibition of Abl (unknown origin) at 1 uM relative to control; values are per cent of control
Tyrosine-protein kinase ABL1 (Homo sapiens), sequence (P00519 whole entry): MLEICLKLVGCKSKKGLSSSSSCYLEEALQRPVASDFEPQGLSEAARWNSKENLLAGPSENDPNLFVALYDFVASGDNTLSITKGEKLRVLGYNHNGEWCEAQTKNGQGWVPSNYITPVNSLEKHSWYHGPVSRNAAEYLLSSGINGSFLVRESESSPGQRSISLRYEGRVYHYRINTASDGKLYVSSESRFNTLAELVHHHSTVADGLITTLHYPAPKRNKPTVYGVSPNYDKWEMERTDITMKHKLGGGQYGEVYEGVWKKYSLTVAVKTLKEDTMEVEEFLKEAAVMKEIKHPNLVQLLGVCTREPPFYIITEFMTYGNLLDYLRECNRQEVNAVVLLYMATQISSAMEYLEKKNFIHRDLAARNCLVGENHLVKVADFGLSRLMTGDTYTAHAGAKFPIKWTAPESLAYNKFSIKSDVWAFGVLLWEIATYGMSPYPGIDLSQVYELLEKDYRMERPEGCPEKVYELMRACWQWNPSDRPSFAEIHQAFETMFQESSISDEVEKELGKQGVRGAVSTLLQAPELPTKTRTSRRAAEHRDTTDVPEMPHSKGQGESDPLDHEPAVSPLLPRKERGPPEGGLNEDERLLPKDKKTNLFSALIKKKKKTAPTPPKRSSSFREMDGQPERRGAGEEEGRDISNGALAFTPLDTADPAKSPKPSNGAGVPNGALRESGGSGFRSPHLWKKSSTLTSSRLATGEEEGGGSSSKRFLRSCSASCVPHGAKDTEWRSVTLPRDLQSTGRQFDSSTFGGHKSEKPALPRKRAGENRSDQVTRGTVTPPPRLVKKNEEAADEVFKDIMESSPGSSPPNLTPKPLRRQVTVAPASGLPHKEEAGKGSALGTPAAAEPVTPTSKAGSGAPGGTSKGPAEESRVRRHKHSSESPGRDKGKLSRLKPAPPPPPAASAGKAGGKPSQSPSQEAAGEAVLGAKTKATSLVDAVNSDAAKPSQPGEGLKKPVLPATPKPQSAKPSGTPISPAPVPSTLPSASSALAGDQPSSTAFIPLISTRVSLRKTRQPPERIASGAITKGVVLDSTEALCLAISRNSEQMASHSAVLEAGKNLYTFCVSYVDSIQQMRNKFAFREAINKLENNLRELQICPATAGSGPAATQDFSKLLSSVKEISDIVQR

[14] = target: Vascular endothelial growth factor receptor 2 (Homo sapiens) (UniProt P35968); assay: Inhibition of KDR (unknown origin) at 1 uM relative to control; values are per cent of control
[15] = target: Activated CDC42 kinase 1 (Homo sapiens) (UniProt Q07912); assay: Inhibition of ACK1 (unknown origin) at 1 uM relative to control; values are per cent of control
[16] = target: Epidermal growth factor receptor (Homo sapiens) (UniProt P00533); assay: Inhibition of EGFR (unknown origin) at 1 uM relative to control; values are per cent of control
Epidermal growth factor receptor (Homo sapiens), sequence (P00533 whole entry): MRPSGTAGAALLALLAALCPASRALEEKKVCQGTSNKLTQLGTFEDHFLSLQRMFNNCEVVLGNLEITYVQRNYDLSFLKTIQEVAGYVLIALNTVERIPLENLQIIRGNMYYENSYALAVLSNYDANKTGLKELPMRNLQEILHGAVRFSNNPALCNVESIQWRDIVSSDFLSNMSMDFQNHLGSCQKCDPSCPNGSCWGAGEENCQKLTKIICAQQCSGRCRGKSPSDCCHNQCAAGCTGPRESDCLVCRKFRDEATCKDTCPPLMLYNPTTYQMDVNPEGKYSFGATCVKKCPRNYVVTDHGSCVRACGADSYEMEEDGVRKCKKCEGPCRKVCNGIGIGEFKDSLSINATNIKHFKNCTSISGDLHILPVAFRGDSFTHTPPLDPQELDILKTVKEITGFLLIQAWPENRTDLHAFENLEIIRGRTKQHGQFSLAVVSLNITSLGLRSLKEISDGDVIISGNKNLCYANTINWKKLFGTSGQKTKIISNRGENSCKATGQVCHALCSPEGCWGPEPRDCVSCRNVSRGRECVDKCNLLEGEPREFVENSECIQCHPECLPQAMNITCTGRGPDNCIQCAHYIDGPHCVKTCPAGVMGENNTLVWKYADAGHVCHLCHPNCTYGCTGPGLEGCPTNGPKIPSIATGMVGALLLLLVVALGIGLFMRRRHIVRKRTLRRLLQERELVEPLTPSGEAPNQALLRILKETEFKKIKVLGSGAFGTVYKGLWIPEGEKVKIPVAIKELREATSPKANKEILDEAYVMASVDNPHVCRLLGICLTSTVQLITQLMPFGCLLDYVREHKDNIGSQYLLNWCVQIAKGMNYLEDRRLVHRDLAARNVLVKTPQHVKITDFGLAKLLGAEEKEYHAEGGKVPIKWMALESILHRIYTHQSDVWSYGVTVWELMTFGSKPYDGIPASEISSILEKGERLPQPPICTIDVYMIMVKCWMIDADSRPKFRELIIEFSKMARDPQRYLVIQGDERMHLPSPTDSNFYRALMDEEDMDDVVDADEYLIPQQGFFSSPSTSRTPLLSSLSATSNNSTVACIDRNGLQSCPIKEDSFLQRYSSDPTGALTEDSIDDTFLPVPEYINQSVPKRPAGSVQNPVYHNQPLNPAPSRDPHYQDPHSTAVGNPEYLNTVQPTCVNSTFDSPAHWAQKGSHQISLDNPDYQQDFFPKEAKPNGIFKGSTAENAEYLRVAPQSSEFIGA

[17] = target: Proto-oncogene tyrosine-protein kinase receptor Ret (Homo sapiens) (UniProt P07949); assay: Inhibition of Ret (unknown origin) at 0.1 uM relative to control; values are per cent of control
[18] = target: Tyrosine-protein kinase Lck (Homo sapiens) (UniProt P06239); assay: Inhibition of Lck (unknown origin) at 0.1 uM relative to control; values are per cent of control
Tyrosine-protein kinase Lck (Homo sapiens), sequence (P06239 2-509 limits assumed): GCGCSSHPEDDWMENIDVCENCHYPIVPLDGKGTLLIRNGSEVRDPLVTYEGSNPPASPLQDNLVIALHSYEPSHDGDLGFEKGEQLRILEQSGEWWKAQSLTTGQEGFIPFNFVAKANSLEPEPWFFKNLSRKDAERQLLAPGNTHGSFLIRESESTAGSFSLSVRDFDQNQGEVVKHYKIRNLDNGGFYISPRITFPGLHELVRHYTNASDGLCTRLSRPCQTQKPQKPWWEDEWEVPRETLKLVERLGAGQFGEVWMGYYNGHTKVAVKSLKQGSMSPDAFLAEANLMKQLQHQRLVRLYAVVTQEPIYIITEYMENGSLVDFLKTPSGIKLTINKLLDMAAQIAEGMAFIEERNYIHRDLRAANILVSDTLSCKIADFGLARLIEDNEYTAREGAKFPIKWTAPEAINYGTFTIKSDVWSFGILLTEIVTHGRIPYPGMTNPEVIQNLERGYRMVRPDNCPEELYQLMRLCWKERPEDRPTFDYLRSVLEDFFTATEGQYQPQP

[19] = target: Tyrosine-protein kinase ABL1 (Homo sapiens) (UniProt P00519); assay: Inhibition of Abl (unknown origin) at 0.1 uM relative to control; values are per cent of control
[20] = target: Mast/stem cell growth factor receptor Kit (Homo sapiens) (UniProt P10721); assay: Inhibition of c-kit (unknown origin) at 1 uM relative to control; values are per cent of control
[21] = target: Fibroblast growth factor receptor 1 (Homo sapiens) (UniProt P11362); assay: Inhibition of FGFR1 (unknown origin) at 1 uM relative to control; values are per cent of control
Fibroblast growth factor receptor 1 (Homo sapiens), sequence (P11362 22-822 limits assumed): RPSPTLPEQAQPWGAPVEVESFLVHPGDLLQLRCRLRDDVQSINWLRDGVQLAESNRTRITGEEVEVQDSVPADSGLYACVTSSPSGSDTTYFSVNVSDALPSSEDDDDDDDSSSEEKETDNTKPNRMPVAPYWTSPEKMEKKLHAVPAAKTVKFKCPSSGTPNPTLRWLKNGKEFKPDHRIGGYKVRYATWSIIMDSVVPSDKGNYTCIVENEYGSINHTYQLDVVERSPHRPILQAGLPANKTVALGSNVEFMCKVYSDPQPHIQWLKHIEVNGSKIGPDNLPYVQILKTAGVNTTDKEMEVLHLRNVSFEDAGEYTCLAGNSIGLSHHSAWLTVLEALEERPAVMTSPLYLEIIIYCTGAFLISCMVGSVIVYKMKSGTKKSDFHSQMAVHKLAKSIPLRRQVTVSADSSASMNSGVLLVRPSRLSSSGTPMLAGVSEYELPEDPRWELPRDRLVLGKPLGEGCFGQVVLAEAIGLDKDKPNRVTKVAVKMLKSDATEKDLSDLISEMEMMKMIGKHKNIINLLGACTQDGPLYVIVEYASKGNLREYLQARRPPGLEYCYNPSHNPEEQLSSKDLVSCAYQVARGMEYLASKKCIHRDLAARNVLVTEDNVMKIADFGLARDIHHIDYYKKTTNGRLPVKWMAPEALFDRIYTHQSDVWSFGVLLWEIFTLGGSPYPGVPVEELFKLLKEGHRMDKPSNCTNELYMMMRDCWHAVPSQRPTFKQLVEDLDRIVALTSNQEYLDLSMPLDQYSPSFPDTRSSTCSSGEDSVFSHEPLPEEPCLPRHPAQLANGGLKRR

[22] = target: Mitogen-activated protein kinase 1 (Homo sapiens) (UniProt P28482); assay: Inhibition of MAPK1 (unknown origin) at 1 uM relative to control; values are per cent of control
Mitogen-activated protein kinase 1 (Homo sapiens), sequence (P28482 whole entry): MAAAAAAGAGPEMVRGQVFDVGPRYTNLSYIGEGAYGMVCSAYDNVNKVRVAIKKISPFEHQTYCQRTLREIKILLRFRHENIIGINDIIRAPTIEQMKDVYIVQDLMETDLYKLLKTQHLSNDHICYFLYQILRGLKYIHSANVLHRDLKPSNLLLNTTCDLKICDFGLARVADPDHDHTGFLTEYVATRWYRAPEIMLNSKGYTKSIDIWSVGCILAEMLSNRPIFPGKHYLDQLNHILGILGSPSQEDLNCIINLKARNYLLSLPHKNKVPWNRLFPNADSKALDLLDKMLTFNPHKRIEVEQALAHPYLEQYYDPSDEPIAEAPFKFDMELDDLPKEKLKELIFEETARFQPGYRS

[23] = target: Dual specificity mitogen-activated protein kinase kinase 1 (Homo sapiens) (UniProt Q02750); assay: Inhibition of MEK1 (unknown origin) at 0.1 uM relative to control; values are per cent of control
Dual specificity mitogen-activated protein kinase kinase 1 (Homo sapiens), sequence (Q02750 whole entry): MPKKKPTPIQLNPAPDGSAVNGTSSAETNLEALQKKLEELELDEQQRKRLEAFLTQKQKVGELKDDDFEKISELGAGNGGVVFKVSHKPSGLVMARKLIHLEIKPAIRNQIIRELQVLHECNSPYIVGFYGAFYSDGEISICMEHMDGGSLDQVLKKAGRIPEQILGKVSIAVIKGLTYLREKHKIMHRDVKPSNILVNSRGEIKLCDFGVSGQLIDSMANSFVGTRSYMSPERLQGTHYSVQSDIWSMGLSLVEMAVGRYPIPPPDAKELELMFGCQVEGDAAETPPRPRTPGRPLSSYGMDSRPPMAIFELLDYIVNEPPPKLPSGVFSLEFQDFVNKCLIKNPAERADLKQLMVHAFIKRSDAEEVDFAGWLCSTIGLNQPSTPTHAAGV

[24] = target: Epidermal growth factor receptor (Homo sapiens) (UniProt P00533); assay: Inhibition of EGFR (unknown origin) at 0.1 uM relative to control; values are per cent of control
[25] = target: Angiopoietin-1 receptor (Homo sapiens) (UniProt Q02763); assay: Inhibition of Tie2 (unknown origin) at 0.1 uM relative to control; values are per cent of control
[26] = target: High affinity nerve growth factor receptor (Homo sapiens) (UniProt P04629); assay: Inhibition of TrkA (unknown origin) at 0.1 uM relative to control; values are per cent of control
[27] = target: Rho-associated protein kinase 1 (Homo sapiens) (UniProt Q13464); assay: Inhibition of ROCK1 (unknown origin) at 0.1 uM relative to control; values are per cent of control
[28] = target: Mitogen-activated protein kinase 1 (Homo sapiens) (UniProt P28482); assay: Inhibition of MAPK1 (unknown origin) at 0.1 uM relative to control; values are per cent of control
[29] = target: Fibroblast growth factor receptor 1 (Homo sapiens) (UniProt P11362); assay: Inhibition of FGFR1 (unknown origin) at 0.1 uM relative to control; values are per cent of control
[30] = target: Death-associated protein kinase 1 (Homo sapiens) (UniProt P53355); assay: Inhibition of DAPK1 (unknown origin) at 0.1 uM relative to control; values are per cent of control
[31] = target: Proto-oncogene tyrosine-protein kinase Src (Homo sapiens) (UniProt P12931); assay: Inhibition of c-SRC (unknown origin) at 0.1 uM relative to control; values are per cent of control
Proto-oncogene tyrosine-protein kinase Src (Homo sapiens), sequence (P12931 2-536 limits assumed): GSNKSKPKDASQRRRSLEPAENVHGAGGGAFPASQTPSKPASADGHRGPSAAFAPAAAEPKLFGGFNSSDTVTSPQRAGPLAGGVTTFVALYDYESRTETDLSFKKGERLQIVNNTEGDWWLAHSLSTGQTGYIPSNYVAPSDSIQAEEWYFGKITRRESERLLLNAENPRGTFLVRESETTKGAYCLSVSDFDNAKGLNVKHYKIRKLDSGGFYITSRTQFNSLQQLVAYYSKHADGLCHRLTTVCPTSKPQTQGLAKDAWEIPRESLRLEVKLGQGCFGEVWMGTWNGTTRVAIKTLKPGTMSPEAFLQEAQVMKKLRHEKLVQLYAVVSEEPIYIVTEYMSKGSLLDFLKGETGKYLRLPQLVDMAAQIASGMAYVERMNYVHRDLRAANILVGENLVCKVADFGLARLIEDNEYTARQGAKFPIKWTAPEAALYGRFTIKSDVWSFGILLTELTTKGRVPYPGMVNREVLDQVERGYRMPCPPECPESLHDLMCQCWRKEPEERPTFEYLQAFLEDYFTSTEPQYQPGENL

[32] = species on record: Homo sapiens; assay: Inhibition of p70S6K (unknown origin) at 0.1 uM relative to control; values are per cent of control

## CNC(=O)c1ccccc1Nc1cc(Nc2ccc(N3CCOCC3)cc2OC)ncc1C(F)(F)F [VS-4718]
[1]
  inhibition: Active
[2]
  Activity: Active
[3]
  Activity: inactive
[4]
  inhibition: Dose-Dependent Effect
[5]
  Activity: Active
[6]
  Activity: Active
[7]
  Activity: 5.6%
[8]
  Activity: Active
[9]
  Activity: 50%
[10]
  Activity: Active
[11]
  inhibition: Dose-Dependent Effect
[12]
  Activity: Non-Toxic
[13]
  residual activity: 112%
[14]
  residual activity: 107%
[15]
  residual activity: 16%
[16]
  residual activity: 106%
[17]
  residual activity: 86%
[18]
  residual activity: 76%
[19]
  residual activity: 104%
[20]
  residual activity: 122%
[21]
  residual activity: 97%
[22]
  residual activity: 58%
[23]
  residual activity: 79%
[24]
  residual activity: 99%
[25]
  residual activity: 97%
[26]
  residual activity: 80%
[27]
  residual activity: 96%
[28]
  residual activity: 78%
[29]
  residual activity: 98%
[30]
  residual activity: 104%
[31]
  residual activity: 98%
[32]
  residual activity: 95%
